Patent US12486273B2 (Hoffmann-La Roche Inc., priority 2019, dated 2025)
Each block holds one compound with its values, some of them ahead of it.

Legend:
[1] = molecular target: human TLR9 (Homo sapiens (Human), UniProt Q9NR96); assay: HEK293-Blue-hTLR-9 cells assay; format: cell-based; details: HEK293-Blue-hTLR9 cells, ODN2006 stimulation, 20 hrs, SEAP reporter; read-out: HEK/hTLR9 IC50
[2] = molecular target: hERG channel (Homo sapiens (Human), UniProt Q12809); assay: hERG channel inhibition assay; format: cell-based; details: patch-clamp; for IC50: CHO hERG cells; for IC20: human, CHO cells stably expressing hERG
Chain of hERG channel (Q12809 whole entry): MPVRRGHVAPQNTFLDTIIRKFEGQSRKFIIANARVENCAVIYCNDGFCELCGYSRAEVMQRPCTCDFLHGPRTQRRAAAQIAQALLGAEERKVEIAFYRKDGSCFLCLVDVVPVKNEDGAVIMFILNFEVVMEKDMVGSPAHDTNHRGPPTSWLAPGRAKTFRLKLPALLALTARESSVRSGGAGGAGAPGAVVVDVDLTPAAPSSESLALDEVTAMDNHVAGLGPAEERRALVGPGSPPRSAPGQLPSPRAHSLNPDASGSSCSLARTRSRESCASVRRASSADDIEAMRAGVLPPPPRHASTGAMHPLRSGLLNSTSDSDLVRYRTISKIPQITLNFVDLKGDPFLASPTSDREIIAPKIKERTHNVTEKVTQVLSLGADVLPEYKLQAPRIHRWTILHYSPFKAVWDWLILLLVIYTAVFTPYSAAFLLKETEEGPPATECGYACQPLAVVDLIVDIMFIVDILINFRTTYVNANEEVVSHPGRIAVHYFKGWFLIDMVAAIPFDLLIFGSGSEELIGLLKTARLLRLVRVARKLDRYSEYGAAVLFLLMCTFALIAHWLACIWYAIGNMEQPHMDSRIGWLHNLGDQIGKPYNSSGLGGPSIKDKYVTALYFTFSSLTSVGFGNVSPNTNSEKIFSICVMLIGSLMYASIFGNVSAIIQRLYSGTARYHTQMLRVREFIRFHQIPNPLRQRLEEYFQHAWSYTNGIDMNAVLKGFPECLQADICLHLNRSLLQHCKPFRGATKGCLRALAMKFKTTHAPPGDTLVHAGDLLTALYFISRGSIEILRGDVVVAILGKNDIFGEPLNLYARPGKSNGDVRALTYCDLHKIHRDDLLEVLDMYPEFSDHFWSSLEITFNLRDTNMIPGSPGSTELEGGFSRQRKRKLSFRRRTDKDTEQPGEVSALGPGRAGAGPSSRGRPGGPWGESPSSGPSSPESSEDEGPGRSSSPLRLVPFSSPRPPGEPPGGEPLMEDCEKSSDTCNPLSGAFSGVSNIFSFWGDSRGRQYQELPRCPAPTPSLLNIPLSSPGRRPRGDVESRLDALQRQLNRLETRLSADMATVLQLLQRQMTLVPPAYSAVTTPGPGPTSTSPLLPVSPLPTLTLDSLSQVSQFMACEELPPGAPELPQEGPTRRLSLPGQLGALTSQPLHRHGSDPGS
Description: hERG Channel Inhibition Assay
The hERG K^+ channels were cloned in humans and stably expressed in a CHO (Chinese hamster ovary) cell line. CHOhERG cells were used for patch-clamp (voltage-clamp, whole-cell) experiments. Cells were stimulated by a voltage pattern to activate hERG channels and conduct IKhERG Currents (rapid delayed outward rectifier potassium current of the hERG channel). After the cells were stabilized for a few minutes, the amplitude and kinetics of IKhERG were recorded at a stimulation frequency of 0.1 Hz (6 bpm). Thereafter, the test compound was added to the preparation at increasing concentrations. For each concentration, an attempt was made to reach a steady-state effect, usually, this was achieved within 3-10 min at which time the next highest concentration was applied. The amplitude and kinetics of IKhERG are recorded in each concentration of the drug which were compared to the control values (taken as 100%). (references: Redfern WS, Carlsson L, Davis A S, Lynch W G, MacKenzie I, Palethorpe S, Siegl P K, Strang I, Sullivan A T, Wallis R, Camm A J, Hammond T G. 2003; Relationships between preclinical cardiac electrophysiology, clinical QT interval prolongation and torsade de pointes for a broad range of drugs: evidence for a provisional safety margin in drug development. Cardiovasc. Res. 58:32-45, Sanguinetti M C, Tristani-Firouzi M. 2006; hERG potassium channels and cardiac arrhythmia. Nature 440:463-469, Webster R, Leishman D, Walker D. 2002; Towards a drug concentration effect relationship for QT prolongation and torsades de pointes. Curr. Opin. Drug Discov. Devel. 5:116-26).

[3] = Human microsomal stability assay; format: in vitro ADME; details: human liver microsomes, 1 μM test compound, 37° C., pH 7.4
Description: Human Microsomal Stability Assay
Human liver microsomes (Cat. NO.: 452117, Corning, USA) were preincubated with test compound for 10 minutes at 37° C. in 100 mM potassium phosphate buffer, pH 7.4. The reactions were initiated by adding NADPH regenerating system. The final incubation mixtures contained 1 μM test compound, 0.5 mg/mL liver microsomal protein, 1 mM MgCl2, 1 mM NADP, 1 unit/mL isocitric dehydrogenase and 6 mM isocitric acid in 100 mM potassium phosphate buffer, pH 7.4. After incubation times of 0, 3, 6, 9, 15 and 30 minutes at 37° C., 300 μL of cold ACN (including internal standard) was added to 100 μL incubation mixture to terminate the reaction. Following precipitation and centrifugation, 100 μL supernatant will be taken out and added 300 μL water. The amount of compound remaining in the samples was determined by LC-MS/MS. Controls of no NADPH regenerating system at zero and 30 minutes were also prepared and analyzed. The results were categorized as: low (<7.0 mL/min/kg), medium (7.0-16.2 mL/min/kg) and high (16.2-23.2 mL/min/kg).

Chain of human TLR9 (Q9NR96 26-1032): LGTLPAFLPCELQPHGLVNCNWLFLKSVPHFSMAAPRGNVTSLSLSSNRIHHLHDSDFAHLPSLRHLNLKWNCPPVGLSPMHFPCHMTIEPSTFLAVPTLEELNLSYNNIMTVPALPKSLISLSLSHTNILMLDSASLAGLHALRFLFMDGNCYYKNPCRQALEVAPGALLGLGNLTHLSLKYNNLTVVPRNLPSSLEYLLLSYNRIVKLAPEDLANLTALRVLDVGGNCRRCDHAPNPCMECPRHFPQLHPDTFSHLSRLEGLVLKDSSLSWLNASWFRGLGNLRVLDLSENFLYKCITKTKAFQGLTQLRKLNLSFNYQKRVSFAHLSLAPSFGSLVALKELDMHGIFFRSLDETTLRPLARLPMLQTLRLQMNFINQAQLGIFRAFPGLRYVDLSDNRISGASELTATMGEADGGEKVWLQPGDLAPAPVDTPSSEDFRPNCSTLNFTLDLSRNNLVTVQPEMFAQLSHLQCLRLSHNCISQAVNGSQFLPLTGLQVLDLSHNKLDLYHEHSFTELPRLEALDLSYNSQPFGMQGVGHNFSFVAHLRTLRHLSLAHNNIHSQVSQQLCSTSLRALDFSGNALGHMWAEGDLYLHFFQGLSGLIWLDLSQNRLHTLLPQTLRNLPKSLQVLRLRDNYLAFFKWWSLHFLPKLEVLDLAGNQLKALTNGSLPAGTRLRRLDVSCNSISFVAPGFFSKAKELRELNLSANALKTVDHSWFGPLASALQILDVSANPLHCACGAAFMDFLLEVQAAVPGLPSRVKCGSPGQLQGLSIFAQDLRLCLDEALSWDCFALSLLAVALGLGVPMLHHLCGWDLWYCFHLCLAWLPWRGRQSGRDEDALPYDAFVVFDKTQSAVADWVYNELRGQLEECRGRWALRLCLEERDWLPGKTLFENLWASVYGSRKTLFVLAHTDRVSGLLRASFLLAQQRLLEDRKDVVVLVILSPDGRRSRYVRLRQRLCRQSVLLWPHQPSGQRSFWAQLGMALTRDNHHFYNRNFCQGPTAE

SMILES: C[C@@H]1CN(c2ccc(C#N)c3ncccc23)C[C@@H]2C[C@@H](Nc3ccc4c(n3)CCNC4)CN21 [Example 1, 5-[(4R,7R,8aS)-4-methyl-7-(5,6,7,8-tetrahydro-1,6-naphthyridin-2-ylamino)-3,4,6,7,8,8a-hexahydro-1H-pyrrolo[1,2-a]pyrazin-2-yl]quinoline-8-carbonitrile]
- IC50 [1]: 0.0434 µM
- IC50 [2]: > 20 µM
- IC20 [2]: > 10 µM
- CL (h) [3]: 9.1 mL/min/kg

SMILES: C[C@@H]1CN(c2ccc(C#N)c3ncccc23)C[C@@H]2C[C@@H](Nc3cc4c(cn3)CCNC4)CN21 [Example 2, 5-[(4R,7R,8aS)-4-methyl-7-(5,6,7,8-tetrahydro-2,6-naphthyridin-3-ylamino)-3,4,6,7,8,8a-hexahydro-1H-pyrrolo[1,2-a]pyrazin-2-yl]quinoline-8-carbonitrile]
- IC50 [1]: 0.0895 µM
- IC50 [2]: > 20 µM
- IC20 [2]: > 10 µM
- CL (h) [3]: 7.3 mL/min/kg

SMILES: C[C@@H]1CN(c2ccc(C#N)c3ncccc23)C[C@@H]2C[C@@H](Nc3ccc4c(n3)CNCC4)CN21 [Example 3, 5-[(4R,7R,8aS)-4-methyl-7-(5,6,7,8-tetrahydro-1,7-naphthyridin-2-ylamino)-3,4,6,7,8,8a-hexahydro-1H-pyrrolo[1,2-a]pyrazin-2-yl]quinoline-8-carbonitrile]
- IC50 [1]: 0.114 µM
- IC50 [2]: > 20 µM
- IC20 [2]: > 10 µM
- CL (h) [3]: 6.7 mL/min/kg

The next lines start with results.

- IC50 [1]: 0.12 µM
- CL (h) [3]: 8.0 mL/min/kg
SMILES: [2H]c1ccc2c(N3C[C@@H]4C[C@H](N5CCNCC5)CN4[C@H](C)C3)ccc(C#N)c2n1 [Example 15, 5-[(4R,7S,8aS)-4-methyl-7-piperazin-1-yl-3,4,6,7,8,8a-hexahydro-1H-pyrrolo[1,2-a]pyrazin-2-yl]-2-deuterio-quinoline-8-carbonitrile]
- IC50 [2]: > 20 µM
- IC20 [2]: > 10 µM

- IC50 [1]: 0.15 µM
- CL (h) [3]: 6.2 mL/min/kg
SMILES: [2H]c1ccc2c(N3C[C@@H]4C[C@H](N5CCC(N(C)C)CC5)CN4[C@H](C)C3)ccc(C#N)c2n1 [Example 20, 5-[(4R,7S,8aS)-7-[4-(dimethylamino)-1-piperidyl]-4-methyl-3,4,6,7,8,8a-hexahydro-1H-pyrrolo[1,2-a]pyrazin-2-yl]-2-deuterio-quinoline-8-carbonitrile]
- IC50 [2]: > 20 µM
- IC20 [2]: > 10 µM
